In article PMC4809294, “STP10 encodes a high-affinity monosaccharide transporter and is induced under low-glucose conditions in pollen tubes of Arabidopsis” (Journal of Experimental Botany, 2016):

Experiments:
[1] = target: T1, STP10 (AtSTP10) (Arabidopsis thaliana, UniProt Q9LT15); assay: competition of […]glucose uptake in STP10-expressing yeast; also direct […]galactose uptake; format: cell-based; settings: 10 µM [14C]glucose, 10-fold excess (100 µM) unlabelled competitor
T1 sequence (Q9LT15 1-514): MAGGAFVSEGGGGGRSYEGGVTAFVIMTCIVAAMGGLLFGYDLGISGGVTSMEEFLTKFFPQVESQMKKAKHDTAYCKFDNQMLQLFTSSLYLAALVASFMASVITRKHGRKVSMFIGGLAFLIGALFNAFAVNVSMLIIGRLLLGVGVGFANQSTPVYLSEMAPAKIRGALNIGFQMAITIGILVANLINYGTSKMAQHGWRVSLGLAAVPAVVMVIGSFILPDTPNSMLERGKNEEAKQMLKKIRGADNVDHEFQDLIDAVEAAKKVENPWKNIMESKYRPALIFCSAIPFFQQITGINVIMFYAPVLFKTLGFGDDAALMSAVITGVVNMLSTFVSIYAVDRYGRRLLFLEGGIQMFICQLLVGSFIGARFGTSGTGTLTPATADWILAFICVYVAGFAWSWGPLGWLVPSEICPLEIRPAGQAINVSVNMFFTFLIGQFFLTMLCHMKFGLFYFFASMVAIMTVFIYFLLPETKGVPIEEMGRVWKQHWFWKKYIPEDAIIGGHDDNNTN

[2] = target: T1, STP10 (AtSTP10); assay: competition of […]glucose uptake in STP10-expressing yeast; format: cell-based; settings: 10 µM [14C]glucose, 10-fold excess (100 µM) unlabelled competitor

% remaining [14C]glucose uptake [1] [%] | % remaining [14C]glucose uptake [2] [%] | SMILES
41 |  | OC[C@H]1OC(O)[C@H](O)[C@@H](O)[C@H]1O (some centres unmarked) [galactose]
 | 64 | OC[C@H]1OC(O)[C@@H](O)[C@@H](O)[C@@H]1O (some centres unmarked) [mannose]
